Test results as given in US20230391727A1, “ANALOGUES OF PENTAMIDINE AND METHODS FOR TREATING INFECTIONS” (Auransa Inc., priority 2020, published 2023).

Tests used:
Assay type in all cases: cell-based
[1] = test system: NCI H69 cells; experiment: CellTiter-Glo cell viability assay (cytotoxicity), 8 days; conditions: Homo sapiens, 192 h, full growth media
Description: The experiment tested pentamidine, Compounds 1-6 in full growth media for 8 days. NCI H69 cells were initially treated with the test compounds on Day 0, and the cells were then replenished with fresh compound dilutions on Day 3. Pentamidine and Compound 1 were tested at 9 concentration points: 100 μM, 33.33 μM, 11.11 μM, 3.70 μM, 1.23 μM, […], 0.05 μM, and 0.02 μM (final DMSO concentration=0.5%). The raw data values from the CellTiter-Glo™ cell viability assay expressed in relative luminescence units were normalized to the vehicle for each individual plate, and any reduction in luminescence indicated a decrease in viability (%). The data was analyzed in GraphPad PRISM using a non-linear sigmoidal plot with variable slope (asymmetric four-point […]), and an IC50 value for each compound was generated based on the normalized dose-response curves and shown in Table 1.

[2] = test system: Stenotrophomonas maltophilia (ATCC 13637); experiment: Checkerboard/MIC assay with rifampicin
Description: (§1) The 17 test strains/isolates were: (1) Serratia marcescens (ATCC 13880); (2) Salmonella typhimurium (ATCC 13311); (3) Salmonella choleraesuis (ATCC 10708); (4) Acinetobacter baumannii (ATCC BAA-1605); (5) A. baumannii (ATCC 17978); (6) A. baumannii (FDA-CDC AR-BANK#0088); (7) Citrobacter freundii (ATCC 8090); (8) Pseudomonas aeruginosa (BCCM 27647); (9) P. aeruginosa (BCCM 27648); (10) Escherichia coli (ATCC 25922); (11) E. coli (ATCC 10536); (12) Stenotrophomonas maltophilia (ATCC 13637); (13) Enterobacter cloacae (ATCC BAA-1143); (14) E. cloacae (ATCC 13047); (15) E. aerogenes (ATCC 13048); (16) Klebsiella pneumoniae (NCTC 13438); and (17) Klebsiella pneumoniae (FDA-CDC AR-BANK#0160). These bacterial strains were obtained from the American Type Culture Collection (ATCC, Rockville, MD, USA); Belgian Coordinated Collections of Microorganisms; The Culture Collections of Public Health England, UK; and FDA-CDC anticimrobial Resistance Isolate Bank, USA, and cryopreserved as single-use frozen working stock cultures which were stored at −80° C.
(§2) The 17 test strains were grown on nutrient agar or tryptic soy agar (TSA) medium as below. Colonies were suspended in phosphate buffered saline (PBS) pH 7.4. The absorbance of the bacterial suspension was measured with a spectrophotometer at OD620nm, and then the suspension was adjusted to 1-2×10^8 CFU/mL in PBS. The adjusted suspension was further diluted 1:500 in cation-adjusted Mueller-Hinton Broth. Each well contained approximately 5×10^5 CFU/mL. […] The testing inoculum was prepared within minutes before adding to wells of the test plate.
(§3) Compound 3 was tested in 8 points by two-fold serial titrations from 100 to 0.78 μg/mL. […] Assay plates were incubated and MIC endpoints were read as complete inhibition of visual growth. The checkerboard combination analysis was performed following the MIC testing protocol to identify potential synergistic, indifferent or antagonistic interactions. The analysis also included each test substance alone at the same concentration ranges.
(§4) FIC (Fraction Inhibitory Concentration) and FIC Index (FICI) values for each test condition and the average of FICI values of all pairwise combinations were calculated to determine if synergy or antagonism existed between the two substances. The FIC index was determined by calculating the sum of the ratios of MICs (minimum inhibitory concentrations) for both substances. […] Synergy is defined as the FICI (Σ)≤0.5; additivity or indifference are defined as the FICI (Σ)>0.5 to ≤4; antagonism is defined as the FICI (Σ)>4. The two fold of highest test article concentration was used for FIC value calculations in the circumstances where MIC values were greater than the highest test article concentration.

[3] = test system: Escherichia coli (ATCC 25922); experiment: Checkerboard/MIC assay with rifampicin
Description: as §1, §2, §3, §4

[4] = test system: 17 clinically relevant bacterial strains; experiment: Checkerboard assays with rifampicin, summary over the panel; conditions: compound 3 in combination of rifampicin; 17 test strains
Description: The 17 test strains/isolates were: (1) Serratia marcescens (ATCC 13880); (2) Salmonella typhimurium (ATCC 13311); (3) Salmonella choleraesuis (ATCC 10708); (4) Acinetobacter baumannii (ATCC BAA-1605); (5) A. baumannii (ATCC 17978); (6) A. baumannii (FDA-CDC AR-BANK#0088); (7) Citrobacter freundii (ATCC 8090); (8) Pseudomonas aeruginosa (BCCM 27647); (9) P. aeruginosa (BCCM 27648); (10) Escherichia coli (ATCC 25922); (11) E. coli (ATCC 10536); (12) Stenotrophomonas maltophilia (ATCC 13637); (13) Enterobacter cloacae (ATCC BAA-1143); (14) E. cloacae (ATCC 13047); (15) E. aerogenes (ATCC 13048); (16) Klebsiella pneumoniae (NCTC 13438); and (17) Klebsiella pneumoniae (FDA-CDC AR-BANK#0160). […]
The 17 test strains were grown on nutrient agar or tryptic soy agar (TSA) medium as below. […] The absorbance of the bacterial suspension was measured with a spectrophotometer at OD620nm, and then the suspension was adjusted to 1-2×10^8 CFU/mL in PBS. […] The actual microbial count in the assay ranged from 2˜8×10^5 CFU/mL as determined from dilution plating. […]
Assay plates were incubated and MIC endpoints were read as complete inhibition of visual growth. […]
FIC (Fraction Inhibitory Concentration) and FIC Index (FICI) values for each test condition and the average of FICI values of all pairwise combinations were calculated to determine if synergy or antagonism existed between the two substances. […]

[5] = compound 3 in combination with rifampicin

With `N=C(N)c1ccc(CC[C@H]2CCC[C@@H](CCc3ccc(C(=N)N)cc3)C2)cc1` [Compound 3, 4,4′-(2,2′-((1R,3S)-cyclohexane-1,3-diyl)bis(ethane-2,1-diyl))dibenzimidamide] as the compound, how does the IC50 [1] read?
The IC50 was 0.8 µM.

And the MIC ([2]; ATCC13637, substance alone)?
The MIC was 12.5 µg/mL.

And the “Combination Result” value [2, 5]?
The value was “synergy (Synergy is defined as the FICI (Σ)≤0.5)”.

And the “FICI (Average)” value [2, 5]?
The value was 0.39.

What about the MIC ([3]; ATCC25922, substance alone) of the same compound?
Its MIC is 6.25 µg/mL.

And the “Combination Result” value [3, 5]?
The value was “additivity/”.

And the “FICI (Average)” value [3, 5]?
The value was 0.52.

And the “combination effect with rifampicin” value [4]?
The value was “synergistic effects for most tested strains”.
